Entries after “also recorded” stand apart in the source; their conditions may differ. Bridge positions count the residues as written; N and C are the ends. Peptide text beside a SMILES is read from it.

Data set [1] can be described thus: Isothermal titration calorimetry (ITC), peptides and LPS. It is filed as binding. The conditions noted are these: for interaction with LPS (heat release): 1 mg/mL peptide, 10 μg/mL LPS, 25 °C, repeated three times. How it is done:
Interactions between peptides and LPS were monitored using a MicroCal ITC200 system (Malvern, UK) at 25 °C. The concentration of the peptides in the syringe was 1 mg/mL (40 μL). LPS was prepared in sterile water at a concentration of 10 μg/mL (300 μL per cell). Twenty injections (0.2 μL for the first injection and 2 μL for the remaining injections) were applied at 120 s intervals and at a stirring rate of 1,000 rpm. The data were processed by subtracting the baseline heat release from titrations of sterile water into LPS and from 20 mM DTT into LPS. The experiment was repeated three times.
On the technique in general: ITC needs no label: the signal is the heat of the interaction.

In another data set the test system is bacteria. As to conditions: among the α defensins; cited from earlier work. An excerpt:
Oxidized human defensin 5 (HD5OX), a 32-residue α defensin, is stored in the secretory granules of Paneth cells in the small intestine as a propeptide (E20-R94) and is processed by anionic and/or meso isoforms of trypsin during secretion or shortly thereafter at a cleavage site between R62 and A63[6]. […] We have previously prepared bioactive HD5OX using Pichia pastoris and design ... || HD5OX is an endogenous bactericidal agent.

In data set [2] the test system is intestinal epithelial cells. As to conditions: cited from earlier work. An excerpt: (§1) Human defensins are also noted for their immunoregulatory properties. […] Additionally, some defensins are able to suppress the pro-inflammatory effect of bacterial lipopolysaccharide (LPS). For example, H ...
Another data set deals with CD4^+T cells. As to conditions: cited from earlier work.
Text: as §1

In another data set the test system is E. coli. Nature of the data set: Antibacterial assay in the presence of LPS. In kind it is cell-based. As to conditions: 4 μg/mL LPS, 12.5 μg/mL peptide. How it is done: (B) Heat release of the interaction between 1 mg/mL of the peptides and 10 μg/mL of LPS. Shown is the relationship between the enthalpy value (△H) and the weight ratio of peptides to LPS. […] The antibacterial efficiency is presented as the bacterial lethal rate, which is calculated by dividing the number of killed colonies by the number of colonies remaining after treatment with sterile water or 0.25 mM DTT. Statistical significance was determined by the Student’s t-test. n.s, not significant; **p < 0.01.

The conditions of data set [3]: cited from earlier work. An excerpt:
Upon examining the biochemical properties of synthetic IDRs, the structural flexibility was noted. For example, the bovine bactenecin linear derivative 1018 adopts various folds in different media, relative to the natural peptide, to adapt to different functions. […] It can be exp ...

Data set [4] deals with anthrax lethal factor (LF). The conditions noted are these: cited from earlier work.
Data set [5] deals with Escherichia coli (ATCC 25922). Kind of data set: virtual colony count assay, E. coli. It is filed as cell-based. As to conditions: for LD50 (Lethal Dose that kills 50% of bacteria) / LD90 (Lethal Dose that kills 90% of bacteria): ATCC 25922 E. coli, 1 × 10^6 CFU/mL, 10 mM sodium phosphate buffer pH 7.4, 1% TSB, 37 °C, 1 h, duplicate, repeated three times. As for the experimental part:
(§2) Figure 3 Reduction attenuates the antibacterial activity of HD5OX against Gram-negative bacteria. […] Peptides were prepared in sterile water, with the final concentrations of 0.78, 1.56, 3.13, 6.25, 12.5, and 25 μg/mL. […] Zero survival points are not plotted.

In data set [6] the test system is Salmonella enterica serovar Typhimurium (ATCC 14028). Nature of the data set: virtual colony count assay, S. Typhimurium. In kind it is cell-based. The conditions noted are these: for LD50 (Lethal Dose that kills 50% of bacteria) / LD90 (Lethal Dose that kills 90% of bacteria): ATCC 14028 S. Typhimurium, 1 × 10^6 CFU/mL, 10 mM sodium phosphate buffer pH 7.4, 1% TSB, 37 °C, 1 h, duplicate, repeated three times. As for the experimental part: as §2

The test system of a further data set is human thioredoxin (Trx). Nature of the data set: HD5OX reduction by thioredoxin in vitro, LC-MS. In kind it is biochemical. The conditions noted are these: 30 μM HD5OX, 15 μM human Trx, 500 nM rat liver TrxR, 1 mM NADPH, 2 mM EDTA, pH 7.0, room temperature, 1 h. As for the experimental part:
(§3) A mixture of 30 μM HD5OX, 15 μM human thioredoxin (Trx, Prospec PRO569), 500 nM rat liver thioredoxin reductase (TrxR, Sigma T9698), 1 mM NADPH (Sigma N5130), and 2 mM EDTA was incubated in 100 mM sodium phosphate buffer (pH 7.0) at room temperature for 1 h. The reaction was quenched by adding 6% trifluoroacetic acid (TFA). The solution was then centrifuged (10,000 g × 10 min) at 4 °C and analyzed with an Agilent 6410 liquid chromatography-mass spectrometry (LC-MS) instrument using a linear gradient of 5–45% acetonitrile that contained 0.1% TFA.

The test system of another data set is HIV gp-120. The conditions noted are these: cited from earlier work.
Data set [7] concerns Enterococcus faecalis (ATCC 29212). Nature of the data set: virtual colony count assay, E. faecalis. The conditions noted are these: HD5OX vs HD5RED.
The test system of data set [8] is E. coli ML35 (ATCC 43827) outer membrane. Nature of the data set: Outer membrane penetration (NPN uptake assay). As to conditions: 6.25 μg/mL, 10 mM sodium phosphate buffer pH 7.4, 37 °C, 1 h; vs HD5OX. It is filed as cell-based. As for the experimental part: Then, an aliquot of 10 μL of NPN (Sigma 104043) was added, resulting in a final concentration of 10 μM. After excitation at 350 nm, the fluorescent intensity was measured in the range from 380-450 nm at intervals of 2 nm using a Tecan Infinite […] microplate reader.

Data set [9] is described as follows: Hydrophobicity of the Trx reduction product (LC-MS). It is filed as physicochemical. The conditions noted are these: linear gradient of 5–45% acetonitrile with 0.1% TFA, vs HD5OX. How it is done:
as §3

Data set [10] has as its system E. coli ML35 inner membrane. Kind of data set: Inner membrane permeabilization (ONPG). The conditions noted are these: 6.25 and 12.5 μg/mL, 37 °C, 2 h, absorbance 405 nm, vs HD5OX. In kind it is cell-based. As for the experimental part:
The production of 2-nitrophenol (ONP), a marker of inner membrane penetration, was determined by measuring the absorbance at 405 nm.

In data set [11] the test system is E. coli ML35 (ATCC 43827) cells. Kind of data set: Zeta potential determination. It is filed as cell-based. How it is done: Samples were equilibrated at 25 °C for 2 min. Zeta potential was determined using the Zetasizer Nano ZS (Malvern Instruments, UK). A total of 6 measurements of 100 runs were carried out for each sample.
[12] abbreviates: virtual colony count, 0.78-25 μg/mL, HD5OX vs HD5RED.

In the case of `CC[C@H](C)[C@@H]1NC(=O)[C@H](CCC(=O)O)NC(=O)[C@@H]2CSSC[C@@H]3NC(=O)[C@H](Cc4ccc(O)cc4)NC(=O)[C@@H](NC(=O)[C@@H](NC(=O)[C@H](C)N)[C@@H](C)O)CSSC[C@@H](C(=O)N[C@@H](CCCNC(=N)N)C(=O)O)NC(=O)[C@H](CSSC[C@H](NC(=O)[C@H](CCCNC(=N)N)NC(=O)CNC(=O)[C@H]([C@@H](C)O)NC(=O)[C@H](CCCNC(=N)N)NC3=O)C(=O)N[C@@H](C)C(=O)N[C@@H]([C@@H](C)O)C(=O)N[C@@H](CCCNC(=N)N)C(=O)N[C@@H](CCC(=O)O)C(=O)N[C@@H](CO)C(=O)N[C@@H](CC(C)C)C(=O)N[C@@H](CO)C(=O)NCC(=O)N[C@@H](C(C)C)C(=O)N2)NC(=O)[C@H](CC(C)C)NC(=O)[C@H](CCCNC(=N)N)NC(=O)[C@H](Cc2ccc(O)cc2)NC(=O)[C@H](CC(C)C)NC(=O)[C@H](CCCNC(=N)N)NC(=O)CNC(=O)[C@H](CO)NC1=O` [HD5OX, Oxidized human defensin 5] (H-ATCYCRTGRCATRESLSGVCEISGRLYRLCCR-OH; disulfide 3-31, 5-20, 10-30; N-terminus and C-terminus assumed), in data set [1], the “interaction with LPS (heat release)” value is reported as “exothermically interacted with 10 μg/mL of LPS”. Besides, the antibacterial activity result in the data set on bacteria is recorded as “widest spectrum of antibacterial activity among the α defensins”. In data set [2], the IL-8 production result is on record as “can induce the production of IL-8”. Moreover, the IL-2 production entry with CD4^+T cells was “can induce the production of IL-8 and IL-2”. In addition, in the data set on E. coli, the “antibacterial efficiency in presence of LPS” value is “virtually unaffected”. For the same compound, the LPS binding entry in [3] is “can bind LPS”. In data set [4], the “binding and inhibition of anthrax lethal factor” value is “efficiently bind and inhibit anthrax lethal factor”. The “LD50 (Lethal Dose that kills 50% of bacteria)” value in [5] came to 3.2 ± 0.7 µg/mL; in [6] it was 4.6 ± 0.5 µg/mL. Further, the “LD90 (Lethal Dose that kills 90% of bacteria)” value in data set [5] is 7.6 ± 1.1 µg/mL; in data set [6], 9.6 ± 0.7 µg/mL. For the same compound, the “antibacterial action against E. coli, relative” value in data set [5] (setting [12]) was “more potent action against these bacteria than HD5RED”. The “antibacterial action against S. Typhimurium, relative” value in data set [6] (setting [12]) is “more potent action against these bacteria than HD5RED”. In addition, the “reduction by Trx” value in the data set with human thioredoxin (Trx) is “Trx catalyzed the reduction of HD5OX in vitro”. In the data set on HIV gp-120, the “binding and inhibition of HIV gp-120” value was “efficiently bind and inhibit”.
Regarding `CC[C@H](C)[C@H](NC(=O)[C@H](CCC(=O)O)NC(=O)[C@H](CS)NC(=O)[C@@H](NC(=O)CNC(=O)[C@H](CO)NC(=O)[C@H](CC(C)C)NC(=O)[C@H](CO)NC(=O)[C@H](CCC(=O)O)NC(=O)[C@H](CCCNC(=N)N)NC(=O)[C@@H](NC(=O)[C@H](C)NC(=O)[C@H](CS)NC(=O)[C@H](CCCNC(=N)N)NC(=O)CNC(=O)[C@@H](NC(=O)[C@H](CCCNC(=N)N)NC(=O)[C@H](CS)NC(=O)[C@H](Cc1ccc(O)cc1)NC(=O)[C@H](CS)NC(=O)[C@@H](NC(=O)[C@H](C)N)[C@@H](C)O)[C@@H](C)O)[C@@H](C)O)C(C)C)C(=O)N[C@@H](CO)C(=O)NCC(=O)N[C@@H](CCCNC(=N)N)C(=O)N[C@@H](CC(C)C)C(=O)N[C@@H](Cc1ccc(O)cc1)C(=O)N[C@@H](CCCNC(=N)N)C(=O)N[C@@H](CC(C)C)C(=O)N[C@@H](CS)C(=O)N[C@@H](CS)C(=O)N[C@@H](CCCNC(=N)N)C(=O)O` [HD5RED] (H-ATCYCRTGRCATRESLSGVCEISGRLYRLCCR-OH), the “efficiency against Gram-positive E. faecalis, relative” value in data set [7] is recorded as “less than HD5OX”. For the same compound, the “interaction with LPS (heat release)” value in data set [1] is given as “heat release was higher than that of HD5OX”. Also, the “LPS-binding, relative” value in [1] (weight ratios ≥8.0, vs HD5OX) is listed as “much stronger than that of HD5OX”. In addition, the “outer membrane destruction (NPN fluorescence intensity)” value in data set [8] is “destroys the outer membrane less effectively than HD5OX”. The “antibacterial efficiency in presence of LPS” value in the data set with E. coli is given as “significantly impaired”. Further, the hydrophobicity of product entry in data set [9] is recorded as “increased hydrophobicity”. The inner membrane disintegration result in data set [10] is listed as “attenuated potency for disintegrating the bacterial inner membrane”. Also, the “zeta potential of cells, compared with HD5OX” value in data set [11] (12.5 and 50 μg/mL, peptide vs HD5OX) was “significantly less than that of cells treated with HD5OX; also recorded: less efficient in altering the bacterial surface charge than HD5OX”. Also, in data set [11] (E. coli ML35 cells, 10 mM sodium phosphate buffer pH 7.4, 1% TSB, 25 °C), the “zeta potential of cells” value is given as “approximately −37 mV”. For the same compound, the “LD50 (Lethal Dose that kills 50% of bacteria)” value in data set [5] came to 6.5 ± 0.8 µg/mL; in data set [6] it was 7.9 ± 1.1 µg/mL. For the same compound, the “LD90 (Lethal Dose that kills 90% of bacteria)” value in data set [5] amounted to 12.9 ± 1.3 µg/mL; in data set [6], 19.5 ± 1.6 µg/mL. Besides, the “fold of concentration needed to inactivate 90% relative to HD5OX” value is given as 1.7 -fold in data set [5] (E. coli ATCC 25922, higher than HD5OX) and 2.0 -fold in data set [6] (S. Typhimurium ATCC 14028, higher than HD5OX).

The values are drawn from paper PMC4785407, “Reduction Impairs the Antibacterial Activity but Benefits the LPS Neutralization Ability of Human Enteric Defensin 5” (Scientific Reports, 2016).
